Source: patent US8758779B2, “Pharmaceutical composition of duloxetine” (Wockhardt Ltd., priority 2009, dated 2014)

Legend:
[1] = Solubility studies (turbidity or clarity of the resultant solution); assay type: physicochemical; conditions: duloxetine present along with one or more cyclodextrin or derivatives, as physical admixture or complex
Protocol: Weighed amount of duloxetine hydrochloride was dispersed in required quantity of water at room temperature. To the above dispersion sodium bicarbonate, propylene glycol, sodium lauryl sulphate or Hydroxypropyl Beta-cyclodextrin was added in requisite amount as specified in Table 5.

[2] = water; cited from earlier work
[3] = acidic environment of gastrointestinal tract; cited from earlier work

In the case of `CNCC[C@H](Oc1cccc2ccccc12)c1cccs1` [Duloxetine], the “Solubility of duloxetine in presence of cyclodextrin” value [1] is listed as “significant increase in solubility”, the Aqueous solubility [2] is listed as “slightly soluble in water” and the Acid stability [3] is listed as “acid labile”.
